{"source": "patent US20220396819A1", "about": "“METHOD FOR PRODUCING PEPTIDE HAVING PHYSIOLOGICAL ACTIVITY, AND PEPTIDE COMPRISING SHORT LINKER” (priority 2019, published 2022)", "molecules": {"B1": {"name": "AET-EPO-PAS100: EPO-PAS dimer peptide linker variant, PAS linker of 100 amino acids, SEQ ID NO: 128 (protein)", "chain": "AETGGLYACHMGPMTWVCQPLRGAAPAAPAPAAPAAPAPAAPAAPAPAAPAAPAPAAPAAPAPAAPAAPAPAAPAAPAPAAPAAPAPAAPAAPAPAAPAAPAPAAPAAPAPAAPAAPAPAAPAGGLYACHMGPMTWVCQPLRG"}, "B2": {"name": "MAETGGLYACHMGPMTWVCQPLRGSAPSPSSAPASASAPASPASASASASPASSPASASSASPAASSASPASSGGLYACHMGPMTWVCQPLRG (peptide)", "chain": "MAETGGLYACHMGPMTWVCQPLRGSAPSPSSAPASASAPASPASASASASPASSPASASSASPAASSASPASSGGLYACHMGPMTWVCQPLRG", "modifications": "MAET-EPO-PAS49-b; DISULFID (10)..(19) Disulfid bridge between Cys-10 and Cys-19; DISULFID (79)..(88) Disulfid bridge between Cys-79 and Cys-88"}, "B3": {"name": "AET-EPO-PAS22-PAS200: stabilized EPO-PAS dimer peptide, PAS200 bound to the C-terminus of AET-EPO-PAS22, SEQ ID NO: 144 (protein)", "chain": "AETGGLYACHMGPMTWVCQPLRGAAPAAPAPAAPAAPAPAAPAAPGGLYACHMGPMTWVCQPLRGAAPAAPAPAAPAAPAPAAPAAPAPAAPAAPAPAAPAAPAPAAPAAPAPAAPAAPAPAAPAAPAPAAPAAPAPAAPAAPAPAAPAAPAPAAPAAPAPAAPAAPAPAAPAAPAPAAPAAPAPAAPAAPAPAAPAAPAPAAPAAPAPAAPAAPAPAAPAAPAPAAPAAPAPAAPAAPAPAAPAAPAPAAPAAPAPAAPAAPAP"}, "B4": {"name": "AET-EPO-PAS22-PAS600: stabilized EPO-PAS dimer peptide, PAS600 bound to the C-terminus of AET-EPO-PAS22, SEQ ID NO: 145 (protein)", "chain": "AETGGLYACHMGPMTWVCQPLRGAAPAAPAPAAPAAPAPAAPAAPGGLYACHMGPMTWVCQPLRGAAPAAPAPAAPAAPAPAAPAAPAPAAPAAPAPAAPAAPAPAAPAAPAPAAPAAPAPAAPAAPAPAAPAAPAPAAPAAPAPAAPAAPAPAAPAAPAPAAPAAPAPAAPAAPAPAAPAAPAPAAPAAPAPAAPAAPAPAAPAAPAPAAPAAPAPAAPAAPAPAAPAAPAPAAPAAPAPAAPAAPAPAAPAAPAPAAPAAPAPAAPAAPAPAAPAAPAPAAPAAPAPAAPAAPAPAAPAAPAPAAPAAPAPAAPAAPAPAAPAAPAPAAPAAPAPAAPAAPAPAAPAAPAPAAPAAPAPAAPAAPAPAAPAAPAPAAPAAPAPAAPAAPAPAAPAAPAPAAPAAPAPAAPAAPAPAAPAAPAPAAPAAPAPAAPAAPAPAAPAAPAPAAPAAPAPAAPAAPAPAAPAAPAPAAPAAPAPAAPAAPAPAAPAAPAPAAPAAPAPAAPAAPAPAAPAAPAPAAPAAPAPAAPAAPAPAAPAAPAPAAPAAPAPAAPAAPAPAAPAAPAPAAPAAPAPAAPAAPAPAAPAAPAPAAPAAPAPAAPAAPAPAAPAAPAPAAPAAPAPAAPAAPAPAAPAAPAPAAPAAPAPAAPAAPAPAAPAAPAP"}}, "target": "T1, EpoR (Homo sapiens, UniProt P19235)", "T1 construct": "host or cells: cells included in the PathHunter eXpress EpoR-JAK2 Functional Assay Kit", "T1 sequence (P19235 25-508)": "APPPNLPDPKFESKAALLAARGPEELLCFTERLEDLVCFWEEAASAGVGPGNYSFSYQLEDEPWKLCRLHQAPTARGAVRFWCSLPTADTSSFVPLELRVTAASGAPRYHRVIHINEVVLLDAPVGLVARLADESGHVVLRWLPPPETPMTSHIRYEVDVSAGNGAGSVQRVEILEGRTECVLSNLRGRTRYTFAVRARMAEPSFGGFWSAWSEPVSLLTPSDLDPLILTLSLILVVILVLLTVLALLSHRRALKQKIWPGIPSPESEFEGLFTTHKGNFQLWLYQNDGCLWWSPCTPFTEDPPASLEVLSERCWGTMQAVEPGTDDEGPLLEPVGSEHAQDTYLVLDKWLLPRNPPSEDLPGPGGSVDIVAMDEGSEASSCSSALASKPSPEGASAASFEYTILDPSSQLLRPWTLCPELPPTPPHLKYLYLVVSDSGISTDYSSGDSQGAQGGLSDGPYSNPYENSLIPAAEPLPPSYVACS", "assay": "EpoR activation ability, PathHunter eXpress EpoR-JAK2 Functional Assay Kit", "format": "cell-based", "conditions": "for EpoR activation, relative activity among linker lengths: Example 38, cell-free translation solution, FIG. 70; for maximum activation ability compared with rhEPO: Example 22, FIG. 35; for EpoR activation, concentration dependence: culture supernatant, FIGS. 35, 55 to 57, 61", "method": "The EpoR activation ability of the EPO-PAS dimer peptide was evaluated using PathHunter (registered trademark) eXpress EpoR-JAK2 Functional Assay Kit (DiscoverX).\n(§1) Cells for EPO activity evaluation included in PathHunter (registered trademark) eXpress EpoR-JAK2 Functional Assay Kit were seeded on a 96-well plate and cultured for 24 hours at 37° C. under 5% CO2. […] As a negative control, the culture supernatant (FIG. 32, lane 18) obtained by culturing as described in Example 20 except for using a vector containing no gene for expressing the EPO-PAS dimer peptide, diluted at the same ratio as the culture supernatant containing AET-EPO-PAS8 or AET-EPO-PAS22, was added. The prepared Substrate Reagent was added to the cells stimulated at room temperature for 3 hours, and the cells were incubated for 60 minutes. The chemiluminescence intensity was quantified with a Nivo plate reader (Perkin Elmer).\nThe EpoR activation ability of the EPO-PAS dimer peptide linker variant was evaluated using PathHunter (registered trademark) eXpress EpoR-JAK2 Functional Assay Kit (DiscoverX).\nas §1, with “48,” for “32,”, “26)” for “18)”, “30” for “20”\nThe EpoR activation ability of the stabilized EPO-PAS dimer peptide was evaluated using PathHunter (registered trademark) eXpress EpoR-JAK2 Functional Assay Kit (DiscoverX).\nCells for EPO activity evaluation included in PathHunter (registered trademark) eXpress EpoR-JAK2 Functional Assay Kit were seeded on a 96-well plate and cultured for 24 hours at 37° C. under 5% CO2. To the cells, a culture supernatant containing 14.2 μg/L to 220 pg/L AET-EPO-PAS22, AET-EPO-PAS22-PAS200, or AET-EPO-PAS22-PAS600 (cultured as described in Example 20 or 33) was added. As a negative control, the culture supernatant (FIG. 58, lane 20) obtained by culturing as described in Example 33 except for using a vector containing no gene for expressing the EPO-PAS dimer peptide, diluted at the same ratio as the culture supernatant containing AET-EPO-PAS22, AET-EPO-PAS22-PAS200, or AET-EPO-PAS22-PAS600, was added. The prepared Substrate Reagent was added to the cells stimulated at room temperature for 3 hours, and the cells were incubated for 60 minutes. The chemiluminescence intensity was quantified with a Nivo plate reader (Perkin Elmer).\nCells for EPO activity evaluation included in PathHunter (registered trademark) eXpress EpoR-JAK2 Functional Assay Kit were seeded on a 96-well plate and cultured for 24 hours at 37° C. under 5% CO2. To the cells, a cell-free translation solution with translated AET-EPO-PAS8, AET-EPO-PAS49-b, or AET-EPO-PAS100-b diluted to a predetermined concentration was added. As a negative control, a cell-free translation solution with untranslated peptide, diluted at the same ratio as the cell-free translation solution with translated AET-EPO-PAS8, AET-EPO-PAS49, or AET-EPO-PAS100, was added. The prepared Substrate Reagent was added to the cells stimulated at room temperature for 3 hours, and the cells were incubated for 60 minutes. The chemiluminescence intensity was quantified with a Nivo plate reader (Perkin Elmer).", "key": {"[1]": {"conditions": "Example 22, Table 4, dimers as culture supernatant, read-out: EC50 (g/L) (converted)"}, "[2]": {"conditions": "Example 35, Table 7, AET-EPO-PAS22 value is that of Example 22"}}, "note": "Like-named read-outs stand apart in the source and are kept apart here. Positions of bridges follow the written chain, without caps; N, C: chain ends. No end group written: not given here.", "data": [{"molecule": "AETGGLYACHMGPMTWVCQPLRGGGGGSGGGGGLYACHMGPMTWVCQPLRG (disulfide 9-18, 37-46) [AET-EPO-GS8]", "values": [{"measurement": "EC50", "result": 0.103, "unit": "nM"}]}, {"molecule": "MAETGGLYACHMGPMTWVCQPLRGAAPAAPAPGGLYACHMGPMTWVCQPLRG (disulfide 10-19, 38-47) [MAET-EPO-PAS8]", "values": [{"measurement": "EpoR activation, relative activity among linker lengths", "result": "higher activity than MAET-EPO-PAS100-b"}]}, {"molecule": "AETGGLYACHMGPMTWVCQPLRGAAPAAPAPGGLYACHMGPMTWVCQPLRG (disulfide 9-18, 37-46) [AET-EPO-PAS8]", "values": [{"measurement": "maximum activation ability compared with rhEPO", "result": "almost the same as that of rhEPO"}, {"measurement": "EC50", "setting": "[1]", "result": 0.036, "unit": "nM"}, {"measurement": "EpoR activation, concentration dependence", "result": "activated EpoR in a concentration-dependent manner"}]}, {"molecule": "AETGGLYACHMGPMTWVCQPLRGGGGGSGGGGSGGGGSGGGGSGGGGLYACHMGPMTWVCQPLRG (disulfide 9-18, 51-60) [AET-EPO-GS22]", "values": [{"measurement": "EC50", "result": 0.216, "unit": "nM"}]}, {"molecule": "AETGGLYACHMGPMTWVCQPLRGAAPAAPAPAAPAAPAPAAPAAPGGLYACHMGPMTWVCQPLRG (disulfide 9-18, 51-60) [AET-EPO-PAS22]", "values": [{"measurement": "maximum activation ability compared with rhEPO", "result": "almost the same as that of rhEPO"}, {"measurement": "EC50", "setting": "[1]", "result": 0.0531, "unit": "nM"}, {"measurement": "EpoR activation, concentration dependence", "result": "activated EpoR in a concentration-dependent manner"}]}, {"molecule": "AETGGLYACHMGPMTWVCQPLRGAAPAAPAPAAPAAPAPAAPAAPAPAAPAAPAPAAPAAPAPAAPAAPAPAGGLYACHMGPMTWVCQPLRG (disulfide 9-18, 78-87) [AET-EPO-PAS49]", "values": [{"measurement": "EC50", "setting": "read-out: EC50 (g/L) (converted)", "result": 0.501, "unit": "nM"}]}, {"molecule": "B1", "values": [{"measurement": "EC50", "setting": "Example 32, Table 6, rhEPO, AET-EPO-PAS8, AET-EPO-PAS22 values are those in Example 22", "result": 6.6, "unit": "ng/mL"}]}, {"molecule": "B2", "values": [{"measurement": "EpoR activation, relative activity among linker lengths", "result": "higher activity than MAET-EPO-PAS100-b"}]}, {"molecule": "B3", "values": [{"measurement": "EC50", "setting": "[2]", "result": 0.85, "unit": "ng/mL"}]}, {"molecule": "B4", "values": [{"measurement": "EC50", "setting": "[2]", "result": 0.32, "unit": "ng/mL"}]}]}
